# Columns and labels:
# Aβ fibril = settings: cited from earlier work
# [1] = Biodistribution of F-18 cromolyn in normal mice after intravenous injection; assay type: in vivo; settings: for Tissue Distribution, blood / Tissue Distribution, brain / Tissue Distribution, heart / Tissue Distribution, liver / Tissue Distribution, lung: normal mice, i.v. tail vein
# Experimental: At 5 min, organ activity (DPG) was: heart: 1.09%, blood: 3.3%, lung: 1.90%, liver: 7.69%, and brain: 0.15%. […] The data is provided in Table 1 below and in bar graph format in FIG. 4.
# [2] = as above; assay type: in vivo; settings: i.v. tail vein
# [3] = Brain concentration of PIB analog TS3124; settings: in vivo
# Aβ (1-40) peptides = Aβ (1-40) peptides (Homo sapiens, UniProt P05067); assay: UV aggregation assay; assay type: biochemical
# Aβ (1-40) peptides, sequence (P05067 672-711 limits assumed): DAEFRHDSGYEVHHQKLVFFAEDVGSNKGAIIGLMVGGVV
# Experimental: Aβ peptide aggregation and the impact of drugs to slow or prevent Aβ aggregation was measured by a UV absorbance assay (Findeis, 1999). Aβ (1-40) peptides, at 50 μM, were mixed with 50 μM drug in assay buffer and the plate was incubated at ambient temperature on a plate reader. The UV absorbance was monitored at 540 nm over a 2-3 h period.
# Polymerization of Aβ-monomer peptides into clusters of trimers and tetramers initiates the Aβ aggregation process into protofibrils and then into fibrils that form amyloid plaques.
# Aβ peptide = Aβ peptide (Homo sapiens, UniProt P05067); assay: Aβ aggregation by thioflavin T assay; assay type: biochemical
# Aβ peptide, sequence (P05067 672-711 limits assumed): as above
# Experimental: One of the most routinely used approaches to monitor Aβ polymerization is the thioflavin T binding assay. […] Aβ peptide at 5 μM was mixed with 10 μM thioflavin T with drug at different concentrations.
# [4] = human, oral inhalation, high inspiratory rates; cited from earlier work
# atherosclerotic plaque = settings: mice; cited from earlier work
# interleukin-6 (IL-6) = settings: mice, stress-related coronary inflammation; cited from earlier work
molecule,measurement,setting,value
"O=c1c(O)c(-c2ccc(O)c(O)c2)oc2ccccc12 [3,3′,4′-Trihydroxyflavone]",Effects on Aβ fibril formation,Aβ fibril,Inhibitory
"O=c1c(O)c(-c2cccc(O)c2)oc2cc(O)ccc12 [3,3′,7-Trihydroxyflavone]",Effects on Aβ fibril formation,Aβ fibril,Enhancing
"O=c1cc(-c2ccc(O)c(O)c2)oc2cc(O)ccc12 [3′,4′,7-Trihydroxyflavone]",Effects on Aβ fibril formation,Aβ fibril,Inhibitory
O=c1c(O)c(-c2ccc(O)cc2)oc2cc(O)ccc12 [5-Deoxykaempferol],Effects on Aβ fibril formation,Aβ fibril,Enhancing
O=c1cc(-c2ccccc2)oc2cc(O)cc(O)c12 [Chrysin],Effects on Aβ fibril formation,Aβ fibril,Enhancing
"O=C(O)c1cc(=O)c2c(OCC([18F])COc3cccc4oc(C(=O)O)cc(=O)c34)cccc2o1 [F-18 Cromolyn, 5,5′-(2-[18F]fluoropropane-1,3-diyl)bis(oxy)bis(4-oxo-4H-chromene-2-carboxylic acid)]",brain uptake (accumulation),"[1]; mice, intravenous injection, 5, 30 or 60 minute, little or no washout, FIG. 4",1%
same,"Tissue Distribution, blood",[1]; 5 min,3.31 ± 1.37 % Dose/gram
same,"Tissue Distribution, brain",[1]; 5 min,0.15 ± 0.37 % Dose/gram
same,"Tissue Distribution, heart",[1]; 5 min,1.09 ± 0.13 % Dose/gram
same,"Tissue Distribution, liver",[1]; 5 min,7.69 ± 0.41 % Dose/gram
same,"Tissue Distribution, lung",[1]; 5 min,1.90 ± 1.04 % Dose/gram
same,"Tissue Distribution, blood","[1]; 5 min, listed as F-18 cromolyn",3.3 % Dose/gram
same,"Tissue Distribution, brain","[1]; 5 min, listed as F-18 cromolyn",0.15 % Dose/gram
same,"Tissue Distribution, heart","[1]; 5 min, listed as F-18 cromolyn",1.09 % Dose/gram
same,"Tissue Distribution, liver","[1]; 5 min, listed as F-18 cromolyn",7.69 % Dose/gram
same,"Tissue Distribution, lung","[1]; 5 min, listed as F-18 cromolyn",1.90 % Dose/gram
same,"Tissue Distribution, blood",[1]; 30 min,0.92 ± 0.20 % Dose/gram
same,"Tissue Distribution, brain",[1]; 30 min,0.04 ± 0.007 % Dose/gram
same,"Tissue Distribution, heart",[1]; 30 min,0.32 ± 0.03 % Dose/gram
same,"Tissue Distribution, blood",[1]; 60 min,0.44 ± 0.15 % Dose/gram
same,"Tissue Distribution, heart",[1]; 60 min,0.18 ± 0.07 % Dose/gram
same,"Tissue Distribution, liver",[1]; 60 min,1.76 ± 0.74 % Dose/gram
same,"Tissue Distribution, liver",[2]; 30 min,3.11 ± 0.36 % Dose/gram
same,"Tissue Distribution, lung",[2]; 30 min,0.62 ± 0.19 % Dose/gram
same,"Tissue Distribution, brain",[2]; 60 min,0.03 ± 0.004 % Dose/gram
same,"Tissue Distribution, heart",[2]; 60 min,0.18 % Dose/gram
same,"Tissue Distribution, lung",[2]; 60 min,0.29 ± 0.21 % Dose/gram
O=c1c(O)c(-c2ccc(O)cc2)oc2cc(O)cc(O)c12 [Kaempferol],Effects on Aβ fibril formation,Aβ fibril,Enhancing
O=c1cc(-c2ccc(O)c(O)c2)oc2cc(O)cc(O)c12 [Luteolin],Effects on Aβ fibril formation,Aβ fibril,Inhibitory
O=c1c(O)c(-c2cc(O)c(O)c(O)c2)oc2cc(O)cc(O)c12 [Myricetin],Effects on Aβ fibril formation,Aβ fibril,Inhibitory
O=c1c(O)c(-c2ccc(O)c(O)c2)oc2cc(O)cc(O)c12 [Quercetin],Effects on Aβ fibril formation,Aβ fibril,Inhibitory
CC(F)CNc1ccc(-c2nc3ccc(O)cc3s2)cc1 (stereo not shown) [TS3124],brain concentration,[3],4%
"O=C([O-])c1cc(=O)c2c(OCC(O)COc3cccc4oc(C(=O)[O-])cc(=O)c34)cccc2o1.[Na+].[Na+] [cromolyn sodium, Disodium cromoglicate]",incubation time required for 50% polymerization,"Aβ (1-40) peptides; Aβ 50 μM, equimolar drug, 14 minutes in the absence of drug",75 min
same,inhibition of the rate of Aβ polymerization,Aβ (1-40) peptides; equimolar concentrations with Aβ,7 fold
same,Aβ aggregation (thioflavin T fluorescence),"Aβ peptide; Aβ peptide 5 μM, 10 μM thioflavin T, drug at nanomolar concentration, FIG. 6",inhibition of Aβ aggregation
same,Aβ amyloid peptide polymerization into oligomers and higher order aggregates,"Aβ peptide; four separate in vitro assays, nanomolar concentrations",effectively inhibits
same,inhaled drug-delivered-dose absorbed into the bloodstream,[4],10-15%
same,dinitrophenyl-albumin-induced plaque expansion,atherosclerotic plaque,prevented
same,release of interleukin-6 (IL-6),interleukin-6 (IL-6),partially inhibited
Fisetin,Effects on Aβ fibril formation,Aβ fibril,Inhibitory
